Experimental data taken from patent US20020022022A1, “Inhibition of cell proliferation and matrix synthesis by antioxidants and NAD(P)H oxidase inhibitors” (priority 2000, published 2002).
“Also recorded” adds a separate entry of the source. Like-named read-outs stand apart in the source and are kept apart here.

B1: CAT: catalase; removal of H2O2 (protein, UniProt P00432 2-527, looked up)
Catalase: ADNRDPASDQMKHWKEQRAAQKPDVLTTGGGNPVGDKLNSLTVGPRGPLLVQDVVFTDEMAHFDRERIPERVVHAKGAGAFGYFEVTHDITRYSKAKVFEHIGKRTPIAVRFSTVAGESGSADTVRDPRGFAVKFYTEDGNWDLVGNNTPIFFIRDALLFPSFIHSQKRNPQTHLKDPDMVWDFWSLRPESLHQVSFLFSDRGIPDGHRHMNGYGSHTFKLVNANGEAVYCKFHYKTDQGIKNLSVEDAARLAHEDPDYGLRDLFNAIATGNYPSWTLYIQVMTFSEAEIFPFNPFDLTKVWPHGDYPLIPVGKLVLNRNPVNYFAEVEQLAFDPSNMPPGIEPSPDKMLQGRLFAYPDTHRHRLGPNYLQIPVNCPYRARVANYQRDGPMCMMDNQGGAPNYYPNSFSAPEHQPSALEHRTHFSGDVQRFNSANDDNVTQVRTFYLKVLNEEQRKRLCENIAGHLKDAQLFIQKKAVKNFSDVHPEYGSRIQALLDKYNEEKPKNAVHTYVQHGSHLSAREKANL

Columns and labels:
[1] = system: superoxide anion (—O2^−) generation in coronary adventitia; assay: —O2^− production in uninjured coronary adventitia (SOD-inhibitable NBT reduction); format: cell-based, pigs; details: uninjured coronary rings pre-incubated with inhibitor; DPI 100 μM, ROT 50 μM, OXY 300 μM
Experimental: The production of —O2^− is measured by superoxide dismutase- (SOD) or tiron-inhibitable conversion of nitroblue tetrazolium (NBT) to formazan. (20,21)
—O2^− production in coronary arteries: Coronary arteries are dissected free from adipose tissue and myocardium and then cut into ˜5 mm rings and placed in 24-well plates. Tissues are balanced in phenol-free DMEM at 37° C. in a CO2 incubator for 30 minutes with or without addition of SOD (SOD, 1000 unit/ml) or tiron (10 mM), both scavengers of —O2^− Freshly made NBT (100 mg/L in phenol-free DMEM) is added to the tissues with a gentle rocking for 3 hours. The reaction is terminated by addition of equal volume of 0.5N HCl, and tissues are rinsed twice with cold PBS. To extract formazan, tissues are pulverized in liquid nitrogen and dissolved in 100% pyridine at 80° C. for 30 minutes. After centrifugation, light absorbance is read in supernatants at 540 nm. The NBT reduction to formazan is calculated using the following formula: NBT reduction=A×V/(T×E×L) (A: absorbance; V: volume of solubilizing solution; T: time of incubation with NBT (minutes); E: extinction coefficient=0.72 mmol.mm; L: length of light travel through the solution, 10 mm). Either SOD- or tiron-inhibitable NBT reduction is calculated as measures of —O2^− production (pmol/min/mg wet weight). To determine the pathways mediating —O2^− production, several inhibitors are used in the experiments, including diphenyleneiodonium (DPI, 100 μM), rotenone (ROT, 50 μM), oxypurinol (OXY, 300 μM), N^ω-nitro-L-arginine methyl ester (L-NAME, 1 mM), and diethyldithio-carbamic acid (DETCA, 10 mM). The n value represents the number of vascular rings obtained from at least 3 animals per experimental condition.

[2] = system: superoxide generation in injured coronary arteries; assay: Superoxide generation in injured coronary arteries (SOD-inhibitable NBT reduction); format: cell-based, pigs; details: for Superoxide generation (SOD-inhibitable NBT reduction): rings pretreated 30 minutes, DPI 100 μM or L-NAME 1 mM; for effect on superoxide generation after coronary injury: injured coronary arteries, DPI 100 μM, L-NAME 1 mM
From the text: Domestic crossbred female pigs (12-15 kg) are anesthetized and instrumented, as previously described. (22,23) After the exposure of the right common carotid artery, heparin (5,000 U) is intravenously administered. […] The third artery is used as a control. The animals are euthanatized with intravenous […] Laboratory) at the times indicated in the text. […] Coronary arteries are dissected free from adipose tissue and myocardium and then cut into 5 mm rings and placed in 24-well plates. […] The reaction is terminated by addition of equal volume of 0.5N HCl, and tissues are rinsed twice with cold PBS. To extract formazan, tissues are pulverized in liquid nitrogen and dissolved in 100% pyridine at 80° C. for 30 minutes. After centrifugation, light absorbance is read in supernatants at 540 nm. The NBT reduction to formazan is calculated using the following formula: NBT reduction=[…]: absorbance; V: volume of solubilizing solution; T: time of incubation with NBT (minutes); […] L: length of light travel through the solution, 10 mm).

[3] = system: —O2^− generation in coronary adventitial fibroblasts; assay: Serum-induced —O2^− generation in coronary adventitial fibroblasts (NBT to formazan); format: cell-based, porcine
Experimental: —O2^− production in isolated adventitial fibroblasts: Adventitial fibroblasts (passage 2-6) are plated in 6-well plates at 100,000 cells/well in 10% FBS. Two (2) days later, when cells are ˜80% confluent, they are arrested in 0.5% FBS for the next 48 hours. Afterwards, they are stimulated with 10% FBS for 1-24 hours, followed by incubation with NBT (0.5 mg/ml in phenol-free DMEM) for one hour. After a brief washing, cells are trypsinized, and cell pellets are dissolved in 100% pyridine. The light absorbance is measured at 540 nm, and the NBT reduction to formazan is calculated as described above and corrected by cell number. Values are derived from 6-9 wells from three separate experiments.

adventitial fibroblasts = assay: Cell proliferation assay, serum-stimulated adventitial fibroblasts (cell counting); format: cell-based, porcine; details: for effect on fibroblast growth (cell counting): 10% FBS, 3 days after treatment, concentration-dependent; for effect on serum-induced growth of vascular cells in vitro: serum-stimulated isolated vascular cells (fibroblasts and SMC, FIGS. 7A and 7B)
Experimental: (§1) Fibroblasts are isolated from the adventitia of porcine coronary arteries as described. (26) The cells (passage 2-6) are plated in triplicates at 10,000 cells/well in 24-well plates in DMEM supplemented with 10% FBS. At 24 hours later, cells are arrested in DMEM containing 0.5% FBS for 48 hours. Afterwards, they are stimulated with 10% FBS for 3 days with or without addition of indicated inhibitors. Cells are trypsinized at 72 hours after stimulation and counted in a Coulter counter. Values are derived from 3 wells/treatment and the experiments are repeated at least three times on separate occasions.

vascular SMC = assay: Vascular SMC proliferation, serum-stimulated (cell counting); format: cell-based; details: 10% FBS, 3 days after treatment; concentration-dependent
Experimental: FIG. 7B. ROS and vascular SMC proliferation. SMC (10,000 cells/well) are arrested with 0.5% FBS for 48 hours and then stimulated with 10% FBS in the presence or absence of various inhibitors. Cell growth is examined at 3 days after treatment by cell counting. […] The experiments are repeated 3 times yielding similar results.
as §1

[4] = system: superoxide anion (—O2^−) in SVG; assay: Superoxide anion in saphenous vein grafts (SOD-inhibitable NBT reduction); format: cell-based, pigs; details: SVG 2 weeks after surgery, DPI 100 μM; for effect on superoxide anion in SVG (SOD-inhibitable NBT reduction): L-NAME 1 mM
Experimental: A porcine model of a graft interposition in the common carotid artery is used as described. (49) Domestic crossbred pigs (n=22) weighing 35-50 kg are sedated with Telazol (3-5 mg/kg) and atropine (0.01 mg/kg) i.m. Anesthesia is maintained with Propofol, i.v. (15 mg/kg/hr). The animals are ventilated with 100% oxygen. Saphenous veins are harvested without distension and incubated for 30 minutes in saline containing nitroglycerine (0.5 mg/ml). Both carotid arteries are dissected free and heparin (150 U/kg) is administered i.v. A ˜2 cm section of the carotid artery is excised and reversed vein interposition grafting is performed. The excised carotid artery then is grafted into the contralateral carotid artery. Postoperative analgesia is provided with Buprenex (0.015 mg/kg) i.m. The animals are given aspirin 650 mg/day p.o. At the times indicated, animals are euthanized with Euthasol (80 mg/kg) i.v. and vascular tissues harvested.
Superoxide anion (—O2^−) production is measured by SOD-inhibitable conversion of NTB to formazan. (20,21) Normal saphenous veins, arteries, SVG, and AG are harvested at 2 weeks after surgery. After the removal of adventitia and endothelium, tissues are cut into ˜5 mm strips, placed in a 24-well plate, and balanced in pheno-free DMEM at 37° C. in CO2 for 30 minutes. Freshly made NBT (0.1 mg/ml in pheno-free DMEM) is added for 3 hours with or without addition of SOD (1000 U/ml). The reaction is terminated by 0.5N HCl and rinsing twice with cold PBS. To extract formazan, tissues are pulverized in liquid nitrogen, dissolved in 100% pyridine at 80° C. for 30 minutes, and centrifuged. Supernatants are read at 540 nm and NBT reduction is calculated as follows: NBT reduction=A×V/(T×E×L) (A: absorbance; V: volume of solubilizing solution; T: time of incubation with NBT (minutes); E: extinction coefficient=0.72 mmol.mm; L: length of light travel through the solution (10 mm).) The SOD-inhibitable NBT reduction is calculated as a measure of —O2^− (pmol/mg wet weight/min). In separate experiments, the inhibitors of oxidative enzymes are used, inlcuding diphenyleneiodonium (DPI, 100 μM) rotenone (ROT, 50 μμM), oxypurinol (OXY, 300 μμM) and N^ω-nitro-L-arginine methyl ester (L-NAME, 1 mM), to determine the origin of —O2^− in vascular grafts.

[5] = cited from earlier work
[6] = pretreated 30 minutes, 10% FBS for 3 hours, DPI 10 μM, SOD 500 U/ml

| Molecule | effect on fibroblast growth (cell counting) (adventitial fibroblasts) | effect on serum-induced growth of vascular cells in vitro (adventitial fibroblasts) | effect on SMC growth (cell counting) (vascular SMC) | effect on superoxide anion in SVG (SOD-inhibitable NBT reduction) [4] | effect on serum-induced —O2^− production [3, 6] | also measured |
| --- | --- | --- | --- | --- | --- | --- |
| c1ccc2c(c1)[I+]c1ccccc1-2 [DPI, diphenyleneiodonium] | significantly inhibits | significantly inhibits; also recorded: abrogates | significantly inhibits | significantly reduced |  | effect on —O2^− generation in coronary adventitia (SOD-inhibitable NBT reduction) [1]: inhibits; also recorded: abolishes; Superoxide generation (SOD-inhibitable NBT reduction) ([2]; 2 days after injury): 0.5 ± 0.9 pmol/mg/min; Superoxide generation (SOD-inhibitable NBT reduction) ([2]; 10 days after injury): 0.2 ± 0.3 pmol/mg/min; effect on superoxide generation after coronary injury [2]: almost entirely abolishes; effect on serum-induced —O2^− production [3]: significant inhibition; also recorded: significant reduction; reduction of —O2^− in SVG [4]: > 95% |
| COC(=O)[C@@H](N)CCCNC(=N)N[N+](=O)[O-] [L-NAME, N^ω-nitro-L-arginine methyl ester] |  | no significant effects |  | no effects; also recorded: do not decrease | no effects | Superoxide generation (SOD-inhibitable NBT reduction) ([2]; 2 days after injury): 12.9 ± 9.4 pmol/mg/min; Superoxide generation (SOD-inhibitable NBT reduction) ([2]; 10 days after injury): 11.5 ± 6.1 pmol/mg/min; effect on superoxide generation after coronary injury [2]: shows no effect |
| CC(=O)N[C@@H](CS)C(=O)O [NAC, N-acetylcysteine] |  |  | significantly inhibits |  |  |  |
| O=c1[nH]c(=O)c2c[nH]nc2[nH]1 [OXY, oxypurinol] |  | no significant effects |  | do not decrease | no effects | effect on —O2^− generation in coronary adventitia (SOD-inhibitable NBT reduction) [1]: no inhibitory effects; also recorded: no effect; effect on superoxide anion in SVG (SOD-inhibitable NBT reduction) ([4]; listed as oxypurinol): no effects |
| C=C(C)[C@H]1Cc2c(ccc3c2O[C@@H]2COc4cc(OC)c(OC)cc4[C@@H]2C3=O)O1 [ROT, rotenone] |  |  |  | do not decrease | no effects | effect on —O2^− generation in coronary adventitia (SOD-inhibitable NBT reduction) [1]: no inhibitory effects; also recorded: no effect; effect on superoxide anion in SVG (SOD-inhibitable NBT reduction) ([4]; listed as rotenone): no effects |
| COc1cc(C(C)=O)ccc1O [apocynin, 4-hydroxy-3-methoxyacetopoenone] |  |  | significantly inhibits |  |  |  |
| CCOC(=O)[C@H](CCc1ccccc1)N[C@@H](C)C(=O)N1[C@H](C(=O)O)C[C@@H]2CCC[C@@H]21 [ramipril] |  |  |  |  |  | cardiovascular mortality ([5]; chronic administration, HOPE trial): reduction |
| O=S(=O)(O)c1cc(O)c(O)c(S(=O)(=O)O)c1 [tiron] | significantly inhibits | inhibits; also recorded: abrogates | significantly inhibits |  |  |  |
| SOD: superoxide dismutase, exogenous enzyme; dismutation of —O2^− to H2O2 | no significant inhibition | does not prevent; also recorded: ineffective | no significant inhibition |  | significant inhibition; also recorded: significant reduction |  |
| vitamin E |  |  |  |  |  | clinical results with antioxidant ([5]; clinical): largely negative |
| B1 | significantly inhibits | inhibits; also recorded: abrogates | significantly inhibits |  |  |  |
